Measured values: the supplement of paper PMC13380429

Legend:
[1] = test system: A549-ACE2 infected with SARS-CoV-2; experiment: cell count relative to DMSO; higher = less toxic; settings: 24 h
Caco-2 [2] = experiment: cell viability relative to DMSO; higher = less toxic; settings: 72 h
HepG2 [3] = experiment: as above; settings: 72 h
U2OS [4] = experiment: as above; settings: 72 h
Vero E6 [5] = experiment: as above; settings: 72 h
[6] = test system: A549-ACE2 infected with SARS-CoV-2; experiment: SARS-CoV-2 infection rate relative to DMSO; higher = more infection; settings: 24 h
A549-ACE2 = experiment: drug-induced phospholipidosis relative to tamoxifen; higher = more phospholipidosis
[7] = test system: A549-ACE2 infected with SARS-CoV-2; experiment: morphology score (similarity to uninfected cells); higher = more like uninfected cells; settings: 24 h
Caco-2 [8] = experiment: relative viability EC50 (midpoint between 100% and the lowest measured viability); higher = less toxic; settings: 72 h
HepG2 [9] = experiment: as above; settings: 72 h
U2OS [10] = experiment: as above; settings: 72 h
Vero E6 [11] = experiment: as above; settings: 72 h
Caco-2 [12] = experiment: drug sensitivity score (DSS) for viability; higher = more toxic; extreme values may be limits of the assay; settings: 72 h
HepG2 [13] = experiment: as above; settings: 72 h
U2OS [14] = experiment: as above; settings: 72 h
Vero E6 [15] = experiment: as above; settings: 72 h
Calu-3 [16] = experiment: cell viability relative to DMSO; higher = less toxic; settings: 72 h
Calu-3 [17] = experiment: relative viability EC50 (midpoint between 100% and the lowest measured viability); higher = less toxic; settings: 72 h
Calu-3 [18] = experiment: drug sensitivity score (DSS) for viability; higher = more toxic; extreme values may be limits of the assay; settings: 72 h

CCCC[C@@H](C=O)NC(=O)[C@H](CC(C)C)NC(=O)OCc1ccccc1 [calpeptin]
Settings | SARS-CoV-2 infection rate, [6] [%] | cell count, [1] [%] | cell viability, Caco-2 [2] [%] | cell viability, HepG2 [3] [%] | cell viability, U2OS [4] [%] | cell viability, Vero E6 [5] [%] | morphology score, [7]
1 nM | – | – | 96.8 | 99.8 | 104 | 97.5 | –
10 nM | – | – | 97 | 95.1 | 98.8 | 99.6 | –
100 nM | – | – | 100 | 98.2 | 103 | 102 | –
0.3 µM | 56 | 114 | – | – | – | – | 0.69
1000 nM | – | – | 94.5 | 98.3 | 95.8 | 98 | –
3 µM | 29 | 120 | – | – | – | – | 0.91
10 µM | 13 | 123 | – | – | – | – | 0.9
10000 nM | – | – | 97.7 | 92.2 | 96.4 | 92.1 | –
30 µM | 8 | 118 | – | – | – | – | 0.77

drug-induced phospholipidosis [%], A549-ACE2
Settings | 0.3 µM | 0.833333 µM | 3.33333 µM | 6.66667 µM | 10 µM | 30 µM
24 h | 5.73 | 6.24 | 10.6 | 21.3 | 26.2 | 64.5
48 h | 3.11 | 2.48 | 7.49 | 16.9 | 26.6 | 77.2
72 h | 4.92 | 2.16 | 4.48 | 13.5 | 24.6 | 87.8

Settings | drug sensitivity score | relative viability EC50 [µM]
Caco-2 [8] | – | > 10
Caco-2 [12] | 0 | –
HepG2 [9] | – | > 10
HepG2 [13] | 0 | –
U2OS [10] | – | > 10
U2OS [14] | 0 | –
Vero E6 [11] | – | > 10
Vero E6 [15] | 0 | –

CN1C(CSCC(F)(F)F)Nc2cc(Cl)c(S(N)(=O)=O)cc2S1(=O)=O (stereo not drawn) [polythiazide]
cell viability [%]
Settings | Caco-2 [2] | Calu-3 [16] | HepG2 [3] | U2OS [4] | Vero E6 [5]
1 nM | 88.1 | 95.7 | 93.7 | 98.4 | 91.7
10 nM | 90.5 | 98.5 | 110 | 97.5 | 98.8
100 nM | 95.2 | 107 | 99.6 | 104 | 86.6
1000 nM | 94.9 | 101 | 103 | 96.2 | 96.8
10000 nM | 93 | 109 | 106 | 100 | 108

Settings | drug sensitivity score | relative viability EC50 [µM]
Caco-2 [8] | – | > 10
Caco-2 [12] | 0 | –
Calu-3 [17] | – | > 10
Calu-3 [18] | 0 | –
HepG2 [9] | – | > 10
HepG2 [13] | 0 | –
U2OS [10] | – | > 10
U2OS [14] | 0 | –
Vero E6 [11] | – | > 10
Vero E6 [15] | 0 | –

CCCCOc1ccc(OCCCN2CCOCC2)cc1 [pramoxine]
cell viability [%]
Settings | Caco-2 [2] | Calu-3 [16] | HepG2 [3] | U2OS [4] | Vero E6 [5]
1 nM | 105 | 104 | 97.1 | 105 | 103
10 nM | 109 | 99.1 | 98.3 | 105 | 97.3
100 nM | 97.8 | 87.1 | 98.1 | 104 | 98.8
1000 nM | 95.8 | 95.1 | 94.7 | 102 | 102
10000 nM | 98 | 102 | 98.9 | 99.3 | 103

Settings | drug sensitivity score | relative viability EC50 [µM]
Caco-2 [8] | – | > 10
Caco-2 [12] | 0 | –
Calu-3 [17] | – | > 10
Calu-3 [18] | 0 | –
HepG2 [9] | – | > 10
HepG2 [13] | 0 | –
U2OS [10] | – | > 10
U2OS [14] | 0 | –
Vero E6 [11] | – | > 10
Vero E6 [15] | 0 | –
